Experiments:
[1] = system: NPM1 and GAPDH acetylation in KB cells; assay: NPM1 and GAPDH acetylation in KB cells (anti-acetyl lysine immunoprecipitation, western blotting); assay type: cell-based
Method: (§1) KB cells were maintained in Dullbecco's modified Eagle medium (DMEM) with 10% fetal bovine serum (FBS) at 37° C. with a 5% CO2 atmosphere in a humidified incubator. For IFNγ and GSNO treatment, KB cells were incubated in the presence of IFNγ 10 ng ml^−1 for an additional 16 h and 24 h respectively. Immunofluorescent staining of cells for confocal microscopy was carried out as described previously^30. CTK7A treatment was done for 24 h followed by acid extraction of histone and immunoblotting as per standard protocol^31.
Whole cell extract were prepared using RIPA buffer as mentioned above. The pre-blocked protein-G sepharose-bound antibody (4 μg) was incubated with 500 μg whole cell lysate overnight at 4° C. After extensive washes, bead-bound protein were analysed by western blotting with indicated antibodies. For HDAC inhibitors treatment, 5 mM sodium butyrate, 5 mM nicotiamide and 100 ng ml^−1 TSA were added 10 h before cells were harvest^36.

Solubility test in water = assay type: physicochemical
Method: To a solution of curcumin in methanol (10 mg, 0.027 Mmol) […]. After incubation for 24 h, the solvent was evaporated in vacuum. The residue […] was purified with repeated recrystallization and filtration method using TLC (CHCl3/MeOH=4:1; Rf=0.5). This gave CTK7 as a dark orange powder (7.18 mg, 55%) which was analyzed by H^1 NMR, Melting point test, Solubility test and ESI-MS.
To a solution of CTK7 in methanol (50 mg, 0.1031 mmol), (10 ml) of Sodium ethoxide was added ([…], 0.1175 mmol) and the reaction mixture was stirred at room temperature for 90 minutes. The solvent was evaporated in vacuum and the residue was washed with hexane, diethyl ether and ethyl acetate. Product was confirmed through H^1 NMR, Solubility test, melting point.

[2] = system: NPM1 and GAPDH expression in KB cells; assay: NPM1 and GAPDH expression in treated KB cells; assay type: cell-based; conditions: 24 h
Method: as §1, with “protocol^31. For whole cell extract preparation RIPA buffer (Tris-HCl 50 mM, pH 7.4 NP-40 1%, Na-deoxycholate 0.25%, NaCl 150 mM, EDTA 1 mM, Phenylmethylsulfonyl fluoride (PMSF), 1 mM Na3VO4, 1 mM NaF and protease inhibitor cocktail) was used.” for “protocol^31.”

[3] = system: Histone H3K14 acetylation in KB cells; assay: H3K14 acetylation in GSNO treated KB cells (western blotting); assay type: cell-based; conditions: concentration dependent
Method: as §1, with “protocol^31. For whole cell extract preparation RIPA buffer (Tris-HCl 50 mM, pH 7.4 NP-40 1%, Na-deoxycholate 0.25%, NaCl 150 mM, EDTA 1 mM, Phenylmethylsulfonyl fluoride (PMSF), 1 mM Na3VO4, 1 mM NaF and protease inhibitor cocktail) was used.” for “protocol^31.”

human melanocytes = conditions: earlier report, cited from earlier work
PCAF = molecular target: T1, PCAF (Homo sapiens, UniProt Q92831); assay: HAT assay with recombinant PCAF; assay type: biochemical
T1 construct: Recombinant baculovirus expressing full-length FLAG-tagged CARM1,CBP and PCAF; FLAG; made in house; host or cells: baculovirus-infected Sf21 cells
T1 sequence (Q92831 whole entry, species assumed): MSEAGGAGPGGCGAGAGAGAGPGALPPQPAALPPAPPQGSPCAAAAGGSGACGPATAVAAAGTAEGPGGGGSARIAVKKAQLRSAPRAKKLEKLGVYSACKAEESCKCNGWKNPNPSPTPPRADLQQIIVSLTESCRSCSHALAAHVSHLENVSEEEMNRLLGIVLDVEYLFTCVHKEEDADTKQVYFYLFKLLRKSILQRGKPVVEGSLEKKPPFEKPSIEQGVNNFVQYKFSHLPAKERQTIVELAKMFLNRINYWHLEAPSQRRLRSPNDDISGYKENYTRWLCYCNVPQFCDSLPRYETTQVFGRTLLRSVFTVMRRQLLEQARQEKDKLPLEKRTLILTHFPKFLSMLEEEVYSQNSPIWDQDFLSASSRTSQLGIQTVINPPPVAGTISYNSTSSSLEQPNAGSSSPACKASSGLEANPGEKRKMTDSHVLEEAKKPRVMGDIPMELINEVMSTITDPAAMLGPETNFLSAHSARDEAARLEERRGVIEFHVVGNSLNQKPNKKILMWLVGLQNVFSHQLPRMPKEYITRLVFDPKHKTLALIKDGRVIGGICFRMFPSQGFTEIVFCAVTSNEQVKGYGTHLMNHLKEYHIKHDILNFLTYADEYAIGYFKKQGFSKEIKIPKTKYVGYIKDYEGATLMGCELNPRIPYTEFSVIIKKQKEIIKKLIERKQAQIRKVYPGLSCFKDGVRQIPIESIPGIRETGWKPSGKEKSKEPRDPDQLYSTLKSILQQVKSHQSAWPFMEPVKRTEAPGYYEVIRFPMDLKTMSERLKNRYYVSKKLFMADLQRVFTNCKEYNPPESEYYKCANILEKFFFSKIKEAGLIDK
Method: (§2) Recombinant baculovirus expressing full-length FLAG-tagged CARM1,CBP and PCAF were purified by immunoaffinity chromatography using M2-agarose beads followed by elution with FLAG peptide. Baculovirus-expressed full-length hexahistidine-tagged p300, and G9a were purified using Ni-NTA affinity chromatography as described previously^30.
(§3) HAT gel fluorography/autoradiography assays were performed as previously reported^30. Kinetic analysis of p300 HAT inhibition was performed as reported earlier^31 in the presence of (0, 30 and 50 μM) CTK7A. The obtained values were plotted as a lineweaver burk plot using Graphpad Prism software. For p300 Autoacetylation assay, reactions of p300 full length (80 ng) were carried out in HAT assay buffer at 30° C. for 10 minutes with or without the protein (NPM1) followed by addition of 1 μl of 4.7 Ci/mmol [^3H] acetyl CoA (NEN-PerkinElmer) and were further incubated for another 10 min in a 30 μl reaction. GAPDH was used as positive control. The radio-labeled acetylated p300 were processed by fluorography followed by autoradiography.

p300 = p300 (Homo sapiens, UniProt Q09472); assay: HAT assay with recombinant p300; assay type: biochemical; set-up: hexahistidine; made in house; host or cells: baculovirus-infected Sf21 cells
p300, sequence (Q09472 whole entry, species assumed): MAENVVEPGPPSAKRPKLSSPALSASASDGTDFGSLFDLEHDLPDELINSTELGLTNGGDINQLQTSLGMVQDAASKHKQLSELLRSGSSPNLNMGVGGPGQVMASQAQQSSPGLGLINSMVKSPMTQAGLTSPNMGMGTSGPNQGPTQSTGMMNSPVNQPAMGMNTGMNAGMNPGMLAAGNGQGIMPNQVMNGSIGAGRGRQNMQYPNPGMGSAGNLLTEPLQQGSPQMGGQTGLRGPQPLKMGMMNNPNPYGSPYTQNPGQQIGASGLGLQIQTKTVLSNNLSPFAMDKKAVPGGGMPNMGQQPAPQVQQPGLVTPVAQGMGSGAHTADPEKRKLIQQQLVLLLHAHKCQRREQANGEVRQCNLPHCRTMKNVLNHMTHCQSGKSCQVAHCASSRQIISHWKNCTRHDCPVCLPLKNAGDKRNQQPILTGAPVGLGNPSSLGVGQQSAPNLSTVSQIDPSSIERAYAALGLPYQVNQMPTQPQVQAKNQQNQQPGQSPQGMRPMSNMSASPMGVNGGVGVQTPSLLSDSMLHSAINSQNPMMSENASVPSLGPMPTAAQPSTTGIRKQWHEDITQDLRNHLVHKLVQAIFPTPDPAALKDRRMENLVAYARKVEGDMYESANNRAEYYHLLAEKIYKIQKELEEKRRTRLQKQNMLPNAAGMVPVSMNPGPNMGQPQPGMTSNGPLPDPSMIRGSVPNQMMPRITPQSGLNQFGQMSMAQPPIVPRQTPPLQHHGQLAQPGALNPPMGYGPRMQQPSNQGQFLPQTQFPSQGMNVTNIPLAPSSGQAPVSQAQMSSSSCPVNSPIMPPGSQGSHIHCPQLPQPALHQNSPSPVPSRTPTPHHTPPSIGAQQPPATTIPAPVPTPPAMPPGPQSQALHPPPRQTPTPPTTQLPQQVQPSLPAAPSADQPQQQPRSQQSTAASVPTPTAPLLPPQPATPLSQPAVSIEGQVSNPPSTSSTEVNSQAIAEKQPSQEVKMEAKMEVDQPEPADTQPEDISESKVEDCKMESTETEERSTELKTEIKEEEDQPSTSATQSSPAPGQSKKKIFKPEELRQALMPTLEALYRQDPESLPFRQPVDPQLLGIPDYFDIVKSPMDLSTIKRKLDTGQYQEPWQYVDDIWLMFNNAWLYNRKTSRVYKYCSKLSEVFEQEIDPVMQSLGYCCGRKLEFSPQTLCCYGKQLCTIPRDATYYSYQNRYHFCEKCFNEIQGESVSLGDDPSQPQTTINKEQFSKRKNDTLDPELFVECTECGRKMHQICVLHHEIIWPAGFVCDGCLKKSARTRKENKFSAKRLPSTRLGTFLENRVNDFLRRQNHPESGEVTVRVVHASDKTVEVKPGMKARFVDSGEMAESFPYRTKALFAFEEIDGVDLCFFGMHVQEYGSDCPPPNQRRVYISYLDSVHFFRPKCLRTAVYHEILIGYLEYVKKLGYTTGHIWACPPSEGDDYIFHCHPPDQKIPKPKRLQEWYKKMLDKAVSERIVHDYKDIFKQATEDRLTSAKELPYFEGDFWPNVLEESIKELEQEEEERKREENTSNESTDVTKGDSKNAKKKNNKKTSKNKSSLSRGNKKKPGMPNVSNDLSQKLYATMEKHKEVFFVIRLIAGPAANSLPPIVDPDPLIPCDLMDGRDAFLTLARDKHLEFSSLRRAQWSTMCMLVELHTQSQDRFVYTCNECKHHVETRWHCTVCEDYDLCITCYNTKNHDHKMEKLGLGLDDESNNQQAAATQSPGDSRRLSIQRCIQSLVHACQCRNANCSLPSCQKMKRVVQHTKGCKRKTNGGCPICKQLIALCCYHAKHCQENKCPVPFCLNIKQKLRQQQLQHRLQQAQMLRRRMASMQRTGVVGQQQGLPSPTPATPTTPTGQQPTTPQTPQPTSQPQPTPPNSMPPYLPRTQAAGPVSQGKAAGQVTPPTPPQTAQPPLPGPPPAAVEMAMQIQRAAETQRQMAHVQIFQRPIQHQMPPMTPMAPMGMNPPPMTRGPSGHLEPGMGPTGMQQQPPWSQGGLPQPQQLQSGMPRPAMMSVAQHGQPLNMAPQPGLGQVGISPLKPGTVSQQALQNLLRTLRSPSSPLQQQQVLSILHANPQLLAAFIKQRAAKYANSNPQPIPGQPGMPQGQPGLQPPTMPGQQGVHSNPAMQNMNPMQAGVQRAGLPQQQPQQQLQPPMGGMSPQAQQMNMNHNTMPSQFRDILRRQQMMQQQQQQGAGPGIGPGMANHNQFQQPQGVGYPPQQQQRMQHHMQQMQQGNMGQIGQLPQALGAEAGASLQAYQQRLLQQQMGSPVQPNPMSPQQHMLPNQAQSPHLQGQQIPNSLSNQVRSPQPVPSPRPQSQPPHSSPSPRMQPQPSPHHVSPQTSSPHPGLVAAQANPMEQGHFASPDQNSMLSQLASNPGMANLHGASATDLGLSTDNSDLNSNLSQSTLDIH
Method: as §2, §3

full length p300 = molecular target: T2, full length p300 (Homo sapiens, UniProt Q09472); assay: p300 autoacetylation assay in vitro (3H-acetyl CoA, fluorography/autoradiography); assay type: biochemical; conditions: dose dependent; 3H-acetyl-CoA
T2 construct: hexahistidine; made in house; host or cells: baculovirus-infected Sf21 cells
T2 sequence (Q09472 whole entry, species assumed): as above
Method: as §3

[4] = system: GAPDH localisation in KB cells; assay: GAPDH nuclear translocation in KB cells (immunofluorescence); assay type: cell-based; conditions: 10 ng ml−1, 16 h
Method: as §1, with “protocol^31. For whole cell extract preparation RIPA buffer (Tris-HCl 50 mM, pH 7.4 NP-40 1%, Na-deoxycholate 0.25%, NaCl 150 mM, EDTA 1 mM, Phenylmethylsulfonyl fluoride (PMSF), 1 mM Na3VO4, 1 mM NaF and protease inhibitor cocktail) was used.” for “protocol^31.”

CC(=N)NCc1cccc(CN)c1 [1400 W, N-(3-(Aminomethyl)benzyl)acetamidine]
effect on IFNγ-enhanced GAPDH and NPM1 acetylation ([1]; 100 μM): abolished or reduced

COc1cc(C=Cc2cc(C=Cc3ccc(O)c(OC)c3)n(-c3ccc(C(=O)O)cc3)n2)ccc1O [CTK7, Hydrazinobenzoylcurcumin]
solubility in water (Solubility test in water): Insoluble

N[C@@H](CCC(=O)N[C@@H](CSN=O)C(=O)NCC(=O)O)C(=O)O [GSNO, S-nitroso-glutathione]
expression of GAPDH [2]: enhanced in a concentration dependent manner
expression of NPM1 [2]: enhanced in a concentration dependent manner
acetylation of GAPDH ([1]; 200 μM GSNO, 24 h): gets acetylated
acetylation of NPM1 ([1]; 200 μM GSNO, 24 h): dramatically enhanced
level of H3K14 acetylation [3]: enhanced

CC(C)(COP(=O)(O)OP(=O)(O)OC[C@H]1O[C@@H](n2cnc3c(N)ncnc32)[C@H](O)[C@@H]1OP(=O)(O)O)[C@@H](O)C(=O)NCCC(=O)NCCSC(=O)[C@@H](N)CCCCN [Lysyl-CoA, lysyl-CoA]
proliferation of human melanocytes (human melanocytes): inhibited
senescence of human melanocytes (human melanocytes; with expression SA-β-gal): induced senescence-like growth arrest

COc1cc(/C=C/C(=O)CC(=O)/C=C/c2ccc(O)c(OC)c2)ccc1O [curcumin, reference compound]
inhibition of PCAF HAT activity (PCAF): inhibitory effect
inhibition of p300 HAT activity (p300): inhibitory effect

NPM1: Nucleophosmin, histone chaperone, multifunctional nucleolar protein
activation of autoacetylation of p300 (full length p300): activate

B1: IFNγ: interferon γ, a proinflamatory cytokine that activates iNOS to produce NO (protein, UniProt P01579 24-161, looked up)
Interferon gamma: QDPYVKEAENLKKYFNAGHSDVADNGTLFLGILKNWKEESDRKIMQSQIVSFYFKLFKNFKDDQSIQKSVETIKEDMNVKFFNSNKKKRDDFEKLTNYSVTDLNVQRKAIHELIQVMAELSPAAKTGKRKRSQMLFRG
GAPDH and NPM1 acetylation ([1]; IFNγ 10 ng ml−1, 16 h, NO-dependent): enhanced
translocation of GAPDH to nucleus [4]: induce the translocation

Reference: US20120165384A1, “INHIBITION OF HISTONE ACETYLTRANSFERASES BY CTK7A AND METHODS THEREOF” (JAWAHARLAL NEHRU CENTRE FOR ADVANCED SCIENTIFIC RESEARCH, priority 2009, published 2012)
